From patent US9963514B2, “BAG3 receptor binding molecules for use as a medicament” (BIOUNIVERSA S.R.L., priority 2013, dated 2018) come the findings set out here.

Assay [1] concerns inducible nitric oxide synthase (iNOS). Briefly: Effect of rBAG3 on iNOS expression in J774 cells (Western blot). Particulars: 20 hours. Type of assay: cell-based, murine. How it is done: (§1) In order to explore the functional consequences of the binding of BAG3 to macrophages, we tested the effect of rBAG3 expression on inducible nitric oxide synthase (iNOS) and cyclo-oxygenase-2 (COX-2) in the cells. J774 cells at 80% confluence were incubated with a control medium, BSA, LPS or rBAG3 for 20 hours. Polymyxin was added to verify the presence of non-specific effects of endotoxins still present after the purification of the BAG3 recombinant protein. COX-2 and iNOS were analyzed in cell lysates by Western blotting.

Assay [2] deals with cyclo-oxygenase-2 (COX-2). Kind of assay: Effect of rBAG3 on COX-2 expression in J774 cells (Western blot). Type of assay: cell-based, murine. Particulars: 20 hours. How it is done: as §1
The subject of assay [3] is J774 murine monocyte cell line. Briefly: Macrophage activation: nitrite production with Griess reagent (Example 8). Format: cell-based. The note with it: 24 h. How it is done: J774 cells were plated at a 60% confluence and incubated for 24 h with the BAG3 recombinant protein at concentrations of 10, 30, or 100 ng/ml. The nitrites production was verified in the culture medium using Griess reagent (1% sulphanilamide, 0.1% naphthyl ethylenediamine, 5% phosphoric acid) and measured using a Beckman DU-62 spectrophotometer at […].
The BAG3 recombinant protein was then used in macrophage activation assays in order to determine a possible role of the protein released in the serum in relation to the blood cells. To this end, the J774 murine monocyte cell line was treated with the BAG3 recombinant protein at different concentrations, using a pro-inflammatory agent, such as lipopolysaccharide (LPS), as a positive control. The activation of monocytes was measured by assay of nitrites. (FIG. 7).

Assay [4] concerns J774 A1 macrophages. Kind of assay: Nitrite release by J774 A1 macrophages incubated with rBAG3 (Example 12). Format: cell-based, murine. Particulars: J774 A1 cells, 24 hours. Here is the method: J774 A1 cells at 80% confluence were incubated with a control medium, BSA, LPS, or rBAG3 for 24 hours. […] supernatant from each sample was incubated with […] Griess reagent; the optical density at 550 nm (OD550) was measured with a Beckman DU62 spectrophotometer. The nitrite concentration was assessed by comparing the sample's OD at 550 nm with that of a standard sodium nitrite curve (FIG. 12).

Assay [5] deals with J774 A1 macrophages. Briefly: IL-6 release by J774 A1 macrophages incubated with rBAG3 (ELISA, Example 13). Type of assay: cell-based, murine. Particulars: J774A.1 cells, 5 hours. Here is the method: J774A.1 cells at 80% confluence were incubated with a control medium, BSA, LPS, or BAG3 for 5 hours. IL-6 was measured in the cell culture medium using an ELISA test. IL-6 concentration was assessed by comparing the sample's ODs with that of a standard IL-6 recombinant curve (FIG. 13).

The test system of another assay is heart muscle cells (HCM). Kind of assay: Confocal fluorescence microscopy of rBAG3-FITC binding to HCM cells. Particulars: 0.1% NaN3, 1 h. Here is the method:
(§2) (FIG. 9). Confocal fluorescence microscopy analysis was performed to measure the binding of rBAG3-FITC to HCM, J774 A1, and PANC-1 cells. The BAG3 recombinant protein and the BSA (bovine serum albumin) (SIGMA) were conjugated to FITC using the FluoroTag Conjugation FITC kit (SIGMA) following the manufacturer's instructions. Equal amounts of rBAG3-FITC and BSA-FITC were added to the three cell lines in the presence of 0.1% NaN3 for 1 h. β-integrin protein was used as a positive control. Fluorescence was analyzed using a Zeiss LSM confocal microscope.

In assay [6] the test system is J774 A1 cells. Briefly: Binding of FITC-BAG3 to J774 macrophages by flow cytometry, with competition by BAG3-specific peptides or anti-BAG3 F(ab')2. Also on record: species or system murine. Here is the method: J774 A1 cells (1×10^6 cells/ml) were incubated with different concentrations of BAG3 FITC protein ([…]). FITC-BSA (70 nM) was used as a negative control (grey). Fluorescence was analyzed by flow cytometry. (FIG. 10).
In particular, J774 cells were incubated with 14 nM FITC-BAG3 protein and with 625 nM BAG3-specific peptides (peptide 1, peptide 2, peptide 3, peptide 4, or a scrambled peptide) or with 420 nM of anti-BAG3 F(ab′) antibodies (mouse monoclonal antibodies AC1, AC2 and the polyclonal antibody produced in rabbit TOS2). Fragments F(ab′) 2 of rabbit or mouse IgG were used as a negative control.

Assay [7] deals with J774 A1 cells. Kind of assay: Confocal fluorescence microscopy of rBAG3-FITC binding to J774 cells. Set-up: species or system murine. Particulars: 1 h. How it is done: The binding of the BAG3 protein to the cell surface of the J774 cells was then confirmed through conjugation of the recombinant protein with a fluorophore (FIG. 8). The BAG3 recombinant protein was then conjugated to FITC using the FluoroTag Conjugation FITC kit (SIGMA). Equal amounts of BSA-FITC (negative control) and rBAG3-FITC were added to the culture medium for 1 h. The cells were then fixed with a 3.7% formaldehyde solution and analyzed with a Zeiss LSM confocal microscope.
Confocal fluorescence microscopy analysis was performed to measure the binding of rBAG3-FITC to HCM, J774 A1, and PANC-1 cells. The BAG3 recombinant protein and the BSA (bovine serum albumin) (SIGMA) were conjugated to FITC using the FluoroTag Conjugation FITC kit (SIGMA) following the manufacturer's instructions. Equal amounts of rBAG3-FITC and BSA-FITC were added to the three cell lines in the presence of 0.1% NaN3 for 1 h. β-integrin protein was used as a positive control. Fluorescence was analyzed using a Zeiss LSM confocal microscope.

Assay [8] concerns pancreatic adenocarcinoma cells (PANC-1). Briefly: Confocal fluorescence microscopy of rBAG3-FITC binding to PANC-1 cells. Particulars: 0.1% NaN3, 1 h. How it is done: as §2

As for “rBAG3: BAG3 recombinant protein with a His tag”, the iNOS enzyme levels result in assay [1] is given as “increased”. Besides, the COX-2 enzyme levels entry in assay [2] was “increased”. The “increase of nitrite production compared to the control” value in [3] (J774 cells, 100 ng/ml, p<0.001) was 200%. Also, the “nitrite production, dependence on dose” value in [3] (J774 cells, 10, 30 or 100 ng/ml) is “dose-dependent”. In addition, in the assay with J774 A1 macrophages [4], the release of nitrite entry was “induces the release of nitrite”. The “release of interleukin-6 (IL-6)” value in the assay with J774 A1 macrophages [5] is “induces the release of interleukin-6 (IL-6)”.

With “FITC-rBAG3: BAG3 recombinant protein conjugated to FITC using the FluoroTag Conjugation FITC kit”, the “binding to heart muscle cells (HCM)” value with heart muscle cells (HCM) is “not”. Moreover, the “FITC-rBAG3 positive cell % (±D.S.)” value with J774 A1 cells [6] (J774 cells, FITC-rBAG3 alone, flow cytometry) was 15.7 (±0.45) %. In the assay with J774 A1 cells [6] (J774 cells, FITC-rBAG3 minus FITC-BSA), the “(FITC-rBAG3)-(FITC-BSA) positive cell % (±D.S.)” value was 11.06 (±0.45) %. The “binding of FITC-BAG3 to macrophages of the J774 cell line” value with J774 A1 cells [6] (flow cytometry, 7, 14 and 70 nm FITC-BAG3) is reported as “binds the macrophages of the J774 cell line”. Besides, the “binding to the cell surface of J774 macrophages” value with J774 A1 cells [7] (listed as BAG3 recombinant protein bound to fluorescein isothiocyanate (FITC)) is on record as “binds the surface of macrophages”; in the assay with J774 A1 cells [7] (listed as rBAG3-FITC), “confirmed”. In addition, the “binding to pancreatic adenocarcinoma cells (PANC-1)” value in assay [8] is recorded as “not”.

On to “FITC-BSA: bovine serum albumin conjugated to FITC, negative control [reference compound]”, for which the “FITC-BSA positive cell % (±D.S.)” value with J774 A1 cells [6] (J774 cells, FITC-BSA negative control, flow cytometry) is given as 4.04 (±0.06) %.
